The target of this assay is T1, N-terminal HiBiT tagged BCL6 (Homo sapiens, UniProt P41182).
T1 construct: expressed in transfected cells; host or cells: HT1080 (ATCC CCL-121), stably transduced with lentivirus pLV-UBC-N-HiBiT-BCL6-PGK-puro
The assay can be described thus: HiBiT based degradation assay. It is filed as cell-based. Particulars: HT1080 cells expressing N-terminal HiBiT tagged BCL6, 5 hours of incubation; for Ymin (5 hr): BCL6 degradation normalized with DMSO control; for DC50: four-parameter logistic model, read-out: EC50 (5 hr). The gist of the method:
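Degradation measured by luminescence from the Nano-Glo HiBiT lytic reagent (15 min, room temperature), normalized to DMSO controls and fitted to a four-parameter curve.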
(In general: With HiBiT, luminescence reflects the tagged protein that the partner subunit can reach.)

On to `CNC(=O)COc1cc2cc(Nc3nc(N4CC5(CN(CC6CCN(c7ccc8c(C9CCC(=O)NC9=O)nn(C)c8c7)CC6)C5)C4)ncc3Cl)cnc2n(C)c1=O` (centres unmarked) [Compound 118, 2-((6-((5-chloro-2-(6-((1-(3-(2,6-dioxopiperidin-3-yl)-1-methyl-1H-indazol-6-yl)piperidin-4-yl)methyl)-2,6-diazaspiro[3.3]heptan-2-yl)pyrimidin-4-yl)amino)-1-methyl-2-oxo-1,2-dihydro-1,8-naphthyridin-3-yl)oxy)-N-methylacetamide], for which the “Ymin (5 hr)” value is “++++ (Ymin < 30%)” and the DC50 was under 10 nM.
For `CNC(=O)COc1cc2cc(Nc3nc(N4CC5(CN(CC6CCN(c7cccc8c(C9CCC(=O)NC9=O)nn(C)c78)CC6)C5)C4)ncc3Cl)cnc2n(C)c1=O` (centres unmarked) [Compound 119, 2-((6-((5-chloro-2-(6-((1-(3-(2,6-dioxopiperidin-3-yl)-1-methyl-1H-indazol-7-yl)piperidin-4-yl)methyl)-2,6-diazaspiro[3.3]heptan-2-yl)pyrimidin-4-yl)amino)-1-methyl-2-oxo-1,2-dihydro-1,8-naphthyridin-3-yl)oxy)-N-methylacetamide], the “Ymin (5 hr)” value is reported as “+++ (30% ≤ Ymin < 50%)” and the DC50 was under 10 nM.
For the compound `CNC(=O)COc1cc2cc(Nc3nc(N4CCC5(CC4)CN(CC4CCN(c6cccc7c(C8CCC(=O)NC8=O)nn(C)c67)CC4)C5)ncc3Cl)cnc2n(C)c1=O` (centres unmarked) [Compound 120, 2-((6-((5-chloro-2-(2-((1-(3-(2,6-dioxopiperidin-3-yl)-1-methyl-1H-indazol-7-yl)piperidin-4-yl)methyl)-2,7-diazaspiro[3.5]nonan-7-yl)pyrimidin-4-yl)amino)-1-methyl-2-oxo-1,2-dihydro-1,8-naphthyridin-3-yl)oxy)-N-methylacetamide], the “Ymin (5 hr)” value is listed as “++++ (Ymin < 30%)” and the DC50 is under 10 nM.
As to `CNC(=O)COc1cc2cc(Nc3nc(N4CCC5(CC4)CN(CC4CCN(c6ccc7c(C8CCC(=O)NC8=O)nn(C)c7c6)CC4)C5)ncc3Cl)cnc2n(C)c1=O` (centres unmarked) [Compound 121, 2-((6-((5-chloro-2-(2-((1-(3-(2,6-dioxopiperidin-3-yl)-1-methyl-1H-indazol-6-yl)piperidin-4-yl)methyl)-2,7-diazaspiro[3.5]nonan-7-yl)pyrimidin-4-yl)amino)-1-methyl-2-oxo-1,2-dihydro-1,8-naphthyridin-3-yl)oxy)-N-methylacetamide], the “Ymin (5 hr)” value was “+++ (30% ≤ Ymin < 50%)” and the DC50 is under 10 nM.
As for `CNC(=O)COc1cc2cc(Nc3nc(N4CC[C@H](CNc5cccc6c(C7CCC(=O)NC7=O)nn(C)c56)C4)ncc3Cl)cnc2n(C)c1=O` (stereo partly drawn) [Compound 122a, 2-((6-((5-chloro-2-((3R)-3-(((3-(2,6-dioxopiperidin-3-yl)-1-methyl-1H-indazol-7-yl)amino)methyl)pyrrolidin-1-yl)pyrimidin-4-yl)amino)-1-methyl-2-oxo-1,2-dihydro-1,8-naphthyridin-3-yl)oxy)-N-methylacetamide], the “Ymin (5 hr)” value is on record as “++ (50% ≤ Ymin < 70%)” and the DC50 is 10 to 100 nM.
In the case of `CNC(=O)COc1cc2cc(Nc3nc(N4CC[C@@H](CNc5cccc6c(C7CCC(=O)NC7=O)nn(C)c56)C4)ncc3Cl)cnc2n(C)c1=O` (stereo partly drawn) [Compound 122b, 2-((6-((5-chloro-2-((3S)-3-(((3-(2,6-dioxopiperidin-3-yl)-1-methyl-1H-indazol-7-yl)amino)methyl)pyrrolidin-1-yl)pyrimidin-4-yl)amino)-1-methyl-2-oxo-1,2-dihydro-1,8-naphthyridin-3-yl)oxy)-N-methylacetamide], the “Ymin (5 hr)” value is reported as “+++ (30% ≤ Ymin < 50%)” and the DC50 was in the range of 10 to 100 nM.
For `CNC(=O)COc1cc2cc(Nc3nc(N4CC[C@H](CNc5ccc6c(C7CCC(=O)NC7=O)nn(C)c6c5)C4)ncc3Cl)cnc2n(C)c1=O` (stereo partly drawn) [Compound 123a, 2-((6-((5-chloro-2-((3R)-3-(((3-(2,6-dioxopiperidin-3-yl)-1-methyl-1H-indazol-6-yl)amino)methyl)pyrrolidin-1-yl)pyrimidin-4-yl)amino)-1-methyl-2-oxo-1,2-dihydro-1,8-naphthyridin-3-yl)oxy)-N-methylacetamide] the same measures were “++ (50% ≤ Ymin < 70%)” and under 10 nM.
Taken in the same sequence, the figures for `CNC(=O)COc1cc2cc(Nc3nc(N4CC[C@@H](CNc5ccc6c(C7CCC(=O)NC7=O)nn(C)c6c5)C4)ncc3Cl)cnc2n(C)c1=O` (stereo partly drawn) [Compound 123b, 2-((6-((5-chloro-2-((3S)-3-(((3-(2,6-dioxopiperidin-3-yl)-1-methyl-1H-indazol-6-yl)amino)methyl)pyrrolidin-1-yl)pyrimidin-4-yl)amino)-1-methyl-2-oxo-1,2-dihydro-1,8-naphthyridin-3-yl)oxy)-N-methylacetamide] were “++++ (Ymin < 30%)” and under 10 nM.
`CNC(=O)COc1cc2cc(Nc3nc(N4CCC(CN5CCN(c6cccc7c(C8CCC(=O)NC8=O)nn(C)c67)CC5)CC4)ncc3Cl)cnc2n(C)c1=O` (centres unmarked) [Compound 132, 2-((6-((5-chloro-2-(4-((4-(3-(2,6-dioxopiperidin-3-yl)-1-methyl-1H-indazol-7-yl)piperazin-1-yl)methyl)piperidin-1-yl)pyrimidin-4-yl)amino)-1-methyl-2-oxo-1,2-dihydro-1,8-naphthyridin-3-yl)oxy)-N-methylacetamide]: the “Ymin (5 hr)” value is on record as “++++ (Ymin < 30%)” and the DC50 is under 10 nM.
As to `CNC(=O)COc1cc2cc(Nc3nc(N4CCC(CN5CCN(c6ccc7c(C8CCC(=O)NC8=O)nn(C)c7c6)CC5)CC4)ncc3Cl)cnc2n(C)c1=O` (centres unmarked) [Compound 133, 2-((6-((5-chloro-2-(4-((4-(3-(2,6-dioxopiperidin-3-yl)-1-methyl-1H-indazol-6-yl)piperazin-1-yl)methyl)piperidin-1-yl)pyrimidin-4-yl)amino)-1-methyl-2-oxo-1,2-dihydro-1,8-naphthyridin-3-yl)oxy)-N-methylacetamide], the “Ymin (5 hr)” value is recorded as “++++ (Ymin < 30%)” and the DC50 is under 10 nM.
Taken in the same sequence, the figures for `CNC(=O)COc1cc2cc(Nc3nc(N4CCN(CC5CCN(c6ccc7c(C8CCC(=O)NC8=O)nn(C)c7c6)CC5)CC4)ncc3F)cnc2n(C)c1=O` (centres unmarked) [Compound 134, 2-((6-((2-(4-((1-(3-(2,6-dioxopiperidin-3-yl)-1-methyl-1H-indazol-6-yl)piperidin-4-yl)methyl)piperazin-1-yl)-5-fluoropyrimidin-4-yl)amino)-1-methyl-2-oxo-1,2-dihydro-1,8-naphthyridin-3-yl)oxy)-N-methylacetamide] were “+++ (30% ≤ Ymin < 50%)” and under 10 nM.
`CNC(=O)COc1cc2cc(Nc3nc(N4CCN(CC5CCN(c6cccc7c(C8CCC(=O)NC8=O)nn(C)c67)CC5)CC4)ncc3F)cnc2n(C)c1=O` (centres unmarked) [Compound 135, 2-((6-((2-(4-((1-(3-(2,6-dioxopiperidin-3-yl)-1-methyl-1H-indazol-7-yl)piperidin-4-yl)methyl)piperazin-1-yl)-5-fluoropyrimidin-4-yl)amino)-1-methyl-2-oxo-1,2-dihydro-1,8-naphthyridin-3-yl)oxy)-N-methylacetamide]: the “Ymin (5 hr)” value is “++++ (Ymin < 30%)” and the DC50 is under 10 nM.
As to `CNC(=O)COc1cc2cc(Nc3nc(N4C[C@@H]5[C@@H](CN6CCN(c7cccc8c(C9CCC(=O)NC9=O)nn(C)c78)CC6)[C@@H]5C4)ncc3Cl)cnc2n(C)c1=O` (stereo partly drawn) [Compound 136a, 2-((6-((5-chloro-2-((1R,5S,6s)-6-((4-(3-(2,6-dioxopiperidin-3-yl)-1-methyl-1H-indazol-7-yl)piperazin-1-yl)methyl)-3-azabicyclo[3.1.0]hexan-3-yl)pyrimidin-4-yl)amino)-1-methyl-2-oxo-1,2-dihydro-1,8-naphthyridin-3-yl)oxy)-N-methylacetamide], the “Ymin (5 hr)” value is “++++ (Ymin < 30%)” and the DC50 is under 10 nM.
For `CNC(=O)COc1cc2cc(Nc3nc(N4CC5(CCC(Nc6cccc7c(C8CCC(=O)NC8=O)nn(C)c67)CC5)C4)ncc3Cl)cnc2n(C)c1=O` (centres unmarked) [Compound 137, 2-((6-((5-chloro-2-(7-((3-(2,6-dioxopiperidin-3-yl)-1-methyl-1H-indazol-7-yl)amino)-2-azaspiro[3.5]nonan-2-yl)pyrimidin-4-yl)amino)-1-methyl-2-oxo-1,2-dihydro-1,8-naphthyridin-3-yl)oxy)-N-methylacetamide], the “Ymin (5 hr)” value is “++++ (Ymin < 30%)” and the DC50 was under 10 nM.
Turning to `CNC(=O)COc1cc2cc(Nc3nc(N4CC5(CCC(Nc6ccc7c(C8CCC(=O)NC8=O)nn(C)c7c6)CC5)C4)ncc3Cl)cnc2n(C)c1=O` (centres unmarked) [Compound 138, 2-((6-((5-chloro-2-(7-((3-(2,6-dioxopiperidin-3-yl)-1-methyl-1H-indazol-6-yl)amino)-2-azaspiro[3.5]nonan-2-yl)pyrimidin-4-yl)amino)-1-methyl-2-oxo-1,2-dihydro-1,8-naphthyridin-3-yl)oxy)-N-methylacetamide], the “Ymin (5 hr)” value is recorded as “++++ (Ymin < 30%)” and the DC50 was under 10 nM.
On to `CNC(=O)COc1cc2cc(Nc3nc(N4CCC(CC5CCN(c6cccc7c(C8CCC(=O)NC8=O)nn(C)c67)CC5)CC4)ncc3Cl)cnc2n(C)c1=O` (centres unmarked) [Compound 139, 2-((6-((5-chloro-2-(4-((1-(3-(2,6-dioxopiperidin-3-yl)-1-methyl-1H-indazol-7-yl)piperidin-4-yl)methyl)piperidin-1-yl)pyrimidin-4-yl)amino)-1-methyl-2-oxo-1,2-dihydro-1,8-naphthyridin-3-yl)oxy)-N-methylacetamide], for which the “Ymin (5 hr)” value is “+++ (30% ≤ Ymin < 50%)” and the DC50 is 100 to 1000 nM.
